From US20230086119A1, “ANTICANCER AGENT CONTAINING RHOA PEPTIDE INHIBITOR AS AN ACTIVE INGREDIENT” (EL MED, priority 2020, published 2023)
Where a SMILES comes first, the peptide text is derived from it. [ ]: non-standard residue; d: D form. The star is where a group is joined. ξ: configuration not given here. Biotinyl(4ξ) = O=C1N[C@H]2CSC(CCCCC(=O)*)[C@H]2N1; pY = N[C@@H](Cc1ccc(OP(=O)(O)O)cc1)C(=O)O; ξIle = CC[C@H](C)C(N)C(=O)O

Columns and labels:
[1] = tested on: HEK293T cells; test: Cell migration by wound healing method in response to Wnt3A; format: cell-based; details: 1 μM, Wnt3A 30 ng/ml, 48 hours, FIG. 42
[2] = biological target: T1, p-Tyr42 RhoA and β-catenin (Homo sapiens, UniProt P35222); test: Co-immunoprecipitation of p-Tyr42 RhoA with β-catenin after Wnt3A; format: cell-based; details: cells pretreated with inhibitor, then Wnt3A; FIGS. 20 and 21
T1 construct: endogenous in cells
T1 sequence (P35222 2-781 limits assumed): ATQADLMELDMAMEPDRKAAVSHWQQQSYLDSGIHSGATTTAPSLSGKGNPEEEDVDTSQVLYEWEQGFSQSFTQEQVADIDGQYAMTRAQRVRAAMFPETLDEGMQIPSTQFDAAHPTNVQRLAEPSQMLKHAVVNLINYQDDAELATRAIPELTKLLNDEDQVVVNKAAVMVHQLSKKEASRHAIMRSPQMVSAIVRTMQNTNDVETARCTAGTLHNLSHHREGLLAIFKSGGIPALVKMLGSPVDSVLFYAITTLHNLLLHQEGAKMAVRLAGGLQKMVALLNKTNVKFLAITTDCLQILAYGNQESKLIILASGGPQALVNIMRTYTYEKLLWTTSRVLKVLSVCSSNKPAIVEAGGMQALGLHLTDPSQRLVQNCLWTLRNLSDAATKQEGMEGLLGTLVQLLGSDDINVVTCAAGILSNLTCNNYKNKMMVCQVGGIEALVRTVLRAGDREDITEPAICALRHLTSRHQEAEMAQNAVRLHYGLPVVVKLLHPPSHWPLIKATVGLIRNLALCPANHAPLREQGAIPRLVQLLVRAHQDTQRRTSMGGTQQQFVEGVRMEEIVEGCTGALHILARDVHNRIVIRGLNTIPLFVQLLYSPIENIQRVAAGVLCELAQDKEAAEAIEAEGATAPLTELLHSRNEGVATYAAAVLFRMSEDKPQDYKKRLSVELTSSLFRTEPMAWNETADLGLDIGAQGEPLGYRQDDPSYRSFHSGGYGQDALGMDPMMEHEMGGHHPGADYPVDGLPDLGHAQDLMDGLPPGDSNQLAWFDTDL
Description: (§1) HEK293T cells were collected and washed with ice-cold PBS, and dissolved with RIPA buffer (50 mM Tris-HCl (pH7.4), 150 mM NaCl, 1% Nonidet P-40, 0.25% NaN3, 1 mM EDTA, 1 mM PMSF, 1 μg/mL aprotinin, 1 μg/mL leupeptin, 1 μg/mL pepstatin, 1 mM sodium orthovanadate, and 1 mM NaF). The cell lysate was centrifuged at 13,475×g for 20 minutes and the supernatant was analyzed for protein concentration using the BCA Protein Assay Kit (Pierce; Rockford, USA). Proteins of the cell lysate were run on SDS-PAGE and transferred to a PVDF membrane (Millipore; Billerica, USA). Anti-RhoA ( 1/500), anti-actin (Santa Cruz; Dallas, Calif.), anti-GSK-3β( 1/500), anti-phospho (Ser9)-GSK-3β( 1/500) (both Cell Signaling, Beverly, USA), anti-O-catenin ( 1/1000) (Invitrogen, Carlsbad, USA), anti-active β-catenin ( 1/500) (Millipore, Billerica, USA), and anti-Tau ( 1/500) (Biosource; Camarillo, Calif.) antibodies were incubated with PVDF membranes at room temperature for 2 hours, and then each was washed 3 times for 5 minutes. Thereafter, the membrane was incubated for 1 hour with anti-rat IgG antibody or anti-mouse IgG antibody conjugated with horse radish peroxidase (HRP) (both provided by ENZO Life Science; Farmingdale, USA, 1/1000 dilution) and each was washed later three times for 10 minutes. The membrane was incubated with an enhanced chemiluminescence (ECL) reagent (Amersham; Uppsala, Sweden) and then exposed to an X-ray film. The strength of the band was quantified with the ImageJ program of the U.S. National Institutes of Health (Bethesda, USA).
1×10^7 Cells were washed with 1×PBS, and the cell lysate was prepared using cell lysis buffer (20 mM Tris pH 7.4, 120 mM NaCl, and 1% Nonidet P-40) containing 10 μg/mL each of leupeptin and aprotinin and each of NaF, Na3VO4, PMSF and 5 mM MgCl2. The lysate was used for immunoprecipitation by specific antibodies. […]

[3] = tested on: A549 cells; test: MTT proliferation with stimulants (FIG. 37); format: cell-based; details: pre-incubated one hour, stimulant 48 hours
Description: (§2) The MTT assay was performed to measure the proliferation of various cancer cell lines, such as HEK293T, LN18 glioma, HepG2 liver cancer, AGS gastric cancer, and A549 lung cancer cells.

[4] = tested on: HEK293T cells; test: MTT proliferation with stimulants (FIG. 37); format: cell-based; details: pre-incubated one hour, stimulant 48 hours
Description: as §2

[5] = tested on: HepG2 cells; test: MTT proliferation with stimulants (FIG. 37); format: cell-based; details: pre-incubated one hour, stimulant 48 hours
Description: as §2

[6] = tested on: LN18 cells; test: MTT proliferation with stimulants (FIG. 37); format: cell-based; details: pre-incubated one hour, stimulant 48 hours
Description: as §2

[7] = tested on: HEK293T cells; test: Wnt3A-induced cell proliferation, fluorescence microscopy; format: cell-based; details: Tat-C3 1 μg/mL, Y27632 10 μM pretreated one hour; Wnt3A 30 ng/mL two days; FIG. 6
Description: (§3) All cells tested were cultured in Dulbecco's Modified Eagle Medium (DMEM; Weljin, Gyeongsan) containing 5% fetal bovine serum (FBS; GIBCO, Carlsbad, USA) and 1% penicillin-streptomycin (complete medium) under 5% CO2 at 37° C.

[8] = tested on: macrophage cell line RAW264.7; test: Wnt3A-mediated cell proliferation, fluorescence microscopy; format: cell-based, mouse; details: Tat-C3 1 μg/mL, Y27632 10 μM pretreated one hour; Wnt3A 30 ng/mL two days; FIG. 7
Description: as §3

[9] = tested on: cyclin D1 and c-Myc; test: Wnt3A-induced cyclin D1 and c-Myc expression, Western blotting; format: cell-based; details: HEK293T; pretreated one hour; Wnt3A 30 ng/mL two hours; FIG. 9
Description: as §1, with “Thereafter, the membrane was incubated for 1 hour with anti-rat IgG antibody or anti-mouse IgG antibody conjugated with horse radish peroxidase (HRP) (both provided by ENZO Life Science; Farmingdale, USA, 1/1000 dilution) and each was washed later three times for 10 minutes. The membrane was incubated with an enhanced chemiluminescence (ECL) reagent (Amersham; Uppsala, Sweden) and then exposed to an X-ray film.” left out

[10] = tested on: HepG2 cells; test: MTT proliferation, substituted amino acids of EM3 (FIGS. 39, 40); format: cell-based; details: DMEM 2.5% FBS 48 hours, FIG. 40 legend
Description: FIGS. 39 and 40 show the effect of the substituted amino acids of EM3 on cell proliferation, and the present inventors have designed various peptide inhibitors replaced with other amino acids. The cells were cultured in DMEM containing 2.5% FBS for 48 hours and cell proliferation was measured by MTT assay.

[11] = tested on: HEK293T; test: MTT proliferation, FBS-stimulated (FIG. 38); format: cell-based; details: pretreated one hour, 2% FBS 48 hours
Description: (§4) The MTT assay was performed to measure the proliferation of various cancer cell lines, such as HEK293T, LN18 glioma, HepG2 liver cancer, HT29 colon cancer, 4T1 mouse breast cancer, and RAW264.7 mouse macrophages.

[12] = tested on: HT29; test: MTT proliferation, FBS-stimulated (FIG. 38); format: cell-based; details: pretreated one hour, 2% FBS 48 hours
Description: as §4

[13] = tested on: HepG2; test: MTT proliferation, FBS-stimulated (FIG. 38); format: cell-based; details: pretreated one hour, 2% FBS 48 hours
Description: as §4

[14] = tested on: LN18; test: MTT proliferation, FBS-stimulated (FIG. 38); format: cell-based; details: pretreated one hour, 2% FBS 48 hours
Description: as §4

[15] = tested on: 4T1; test: MTT proliferation, FBS-stimulated (FIG. 38); format: cell-based, mouse; details: pretreated one hour, 2% FBS 48 hours
Description: as §4

[16] = tested on: RAW264.7 cells; test: MTT proliferation, FBS-stimulated (FIG. 38); format: cell-based, mouse; details: pretreated one hour, 2% FBS 48 hours
Description: as §4

[17] = tested on: 4T1 cells; test: Xenotransplantation experiment with 4T1 cells in BALB/c mice; format: in vivo; details: EM3 2.5 mM, 10 μL/mouse daily
Description: Animal care and experiments were performed by the approval of the Institutional Animal Care and Use Committee (HIRB-2016-52) of Hallym University. Male BALB/c mice (7 weeks old) were injected with 4T1 cells (5×10^5 cells in […] of 1×PBS), and randomly assigned to an EM3 treatment group (7 mice) or the control group (6 mice). The normal group also included two non-tumor mice. Cells were injected subcutaneously and EM3 (2.5 mM, 10 μL/mouse) and 1× PBS (10 μL/mouse) were applied daily. Tumor volume was measured daily and tumor weight and spleen size were measured after sacrificing the mice.

CC[C@H](C)C(NC(=O)[C@H](CC(=O)O)NC(=O)[C@H](C)NC(=O)[C@@H](NC(=O)[C@H](Cc1ccc(O)cc1)NC(=O)[C@H](CC(N)=O)NC(=O)[C@H](CCC(=O)O)NC(=O)[C@H](Cc1ccccc1)NC(=O)[C@@H](NC(=O)[C@@H](NC(=O)CCCCC1SC[C@@H]2NC(=O)N[C@H]12)[C@@H](C)O)C(C)C)C(C)C)C(=O)N[C@@H](CCC(=O)O)C(=O)O (stereo partly shown) [EM4] ({Biotinyl(4ξ)}-TVFENYVAD[ξIle]E-OH)
migration of HEK293 cells in response to Wnt3A [1]: reducing the migration

CC(C)[C@H](NC(=O)[C@H](Cc1ccc(O)cc1)NC(=O)[C@@H](N)CC(N)=O)C(=O)N[C@@H](C)C(N)=O [PR2] (H-NYVA-NH2)
co-immunoprecipitation of p-Tyr42 RhoA and β-catenin [2]: inhibited
proliferation of A549 cells by PMA [3]: significantly inhibited
proliferation of HEK293T cells by LPS [4]: significantly inhibited
proliferation of HEK293T cells by Wnt3A [4]: significantly inhibited
proliferation of HEk293T cells by H2O2 [4]: significantly inhibited
proliferation of HepG2 cells by insulin [5]: significantly inhibited
proliferation of LN18 cells by EGF [6]: significantly inhibited

CC(C)[C@H](NC(=O)[C@H](Cc1ccc(OP(=O)(O)O)cc1)NC(=O)[C@@H](N)CC(N)=O)C(=O)N[C@@H](C)C(N)=O [PR3] (H-N[pY]VA-NH2)
co-immunoprecipitation of p-Tyr42 RhoA and β-catenin [2]: inhibited
proliferation of A549 cells by PMA [3]: significantly inhibited
proliferation of HEK293T cells by LPS [4]: significantly inhibited
proliferation of HEK293T cells by Wnt3A [4]: significantly inhibited
proliferation of HEk293T cells by H2O2 [4]: significantly inhibited
proliferation of HepG2 cells by insulin [5]: significantly inhibited
proliferation of LN18 cells by EGF [6]: significantly inhibited
migration of HEK293 cells in response to Wnt3A [1]: reducing the migration

C[C@@H](N)[C@H]1CC[C@H](C(=O)Nc2ccncc2)CC1 [Y27632]
proliferation of HEK293T cells by Wnt3A [7]: abolished
Wnt3A-mediated proliferation in RAW264.7 [8]: inhibited
Wnt3A-increased expression of cyclin D1 and c-Myc [9]: abolished this increased expression

AYVA [HL1]
inhibitory effect on HepG2 cell proliferation, compared with EM3 [10]: less effective than EM3

NFVA [HL7]
inhibitory effect on HepG2 cell proliferation, compared with EM3 [10]: less effective than EM3

NYLA [HL5]
inhibitory effect on HepG2 cell proliferation, compared with EM3 [10]: less effective than EM3

NYVA-NH2 [EM3]
co-immunoprecipitation of p-Tyr42 RhoA and β-catenin [2]: inhibited
proliferation of FBS-stimulated HEK293T cells [11]: significantly inhibited
proliferation of FBS-stimulated HT29 cells [12]: significantly inhibited
proliferation of FBS-stimulated HepG2 cells [13]: significantly inhibited
proliferation of FBS-stimulated LN18 cells [14]: significantly inhibited
proliferation of FBS-stimulated 4T1 cells [15]: significantly inhibited
proliferation of FBS-stimulated RAW264.7 cells [16]: significantly inhibited
migration of HEK293 cells in response to Wnt3A [1]: reducing the migration
tumor volume ([17]; 4T1 cells subcutaneous, FIG. 43A): dramatically decreased
tumor weight ([17]; 4T1 cells subcutaneous, after sacrifice, FIG. 43B): dramatically decreased
spleen size ([17]; 4T1 tumor, after sacrifice, FIG. 43C): same size compared to control mice

NYVS [HL4]
inhibitory effect on HepG2 cell proliferation, compared with EM3 [10]: less effective than EM3
